For the assay, the system named is MKs. Description: Shear-induced proPLT production and PLT release by MKs in the microfluidic device (live-cell microscopy). In kind it is cell-based, mouse. Particulars: for PLT release: under both static and physiological shear conditions; for shear-induced proPLT production: physiological shear. The protocol: Devices were coated with a 0.22 μm filtered 10% BSA solution (Millipore, Billerica, Mass.) for 30 minutes to prevent direct cell contact with glass. Primary MKs and media were infused in the first inlet 118 and second inlet 122, respectively, at a rate of 12.5 μL/hour using a two-syringe microfluidic pump (Harvard Apparatus, Holliston, Mass.). When the first outlet 120 is closed, both input solutions are redirected toward the second outlet 124 causing primary MKs to trap.
For shear cultures, MKs were loaded onto ‘naked’ microfluidic devices (only BSA-coated), and the infusion rate was doubled incrementally from 12.5 μL/hr to 200 μL/hr over a 2 hour period. For static cultures, isolated MKs were pipetted into chambers formed by mounting a glass coverslide coated with 3% BSA onto a […] with a 1 cm hole and cultured for 24 hours. Both static and shear cultures were maintained at 37 degrees C. and 5 percent CO2 and examined on a Zeiss Axiovert 200 (Carl Zeiss, Thornwood, N.Y.) equipped with 10× (numerical aperature, 0.30) Plan-Neofluar air objective. Differential interference contrast (DIC) images were obtained using CCD camera (Hamamatsu Photonics, Boston, Mass.) at either 2 second (shear cultures) or 20 minute (static cultures) intervals. Images were analyzed using the Metamorph version 7.7.2.0 image analysis software (Molecular Devices, Sunnyvale, Calif., USA) and ImageJ software version 1.47p. ProPLT extension rates were determined manually for over 200 MKs from at least three independent samples. For PLT spreading experiments, effluent was collected from microfluidic devices after 2 hours and pipetted into uncoated static culture chambers, described above. PLTs were permitted to contact glass by gravity sedimentation and spreading was captured at 5 second intervals over a 5 minute period.
In vivo BM MKs extend proPLTs in the direction of blood flow and release PLTs, proPLTs, large cytoplasmic fragments (prePLTs), and even whole MKs into sinusoidal blood vessels which may be trapping in the pulmonary microvascular bed, or otherwise maturing in the circulation. To determine the effect of physiological shear on PLT production, mouse fetal liver culture-derived (mFLC) MKs were isolated on culture day 4 and characterized by size and ploidy before being infused into the microfluidic device (shown in FIG. 3A).
While shear rates were kept constant, proPLT extension rates varied at different positions along the shaft, predictive of a regulated cytoskeletal driven mechanism of proPLT elongation (shown in FIG. 4C). […]

Regarding `CCCCCC[C@@H]([C@@H](C)O)n1cnc2c(N)ncnc21` (racemic) [EHNA], under “1 mM EHNA”, the PLT release result was “inhibited”. Further, the “shear-induced proPLT production” value (MKs incubated with 1 mM EHNA prior to infusion in microfluidic device) is “inhibit”.

With `C/C1=C\[C@H](C)C[C@H](C)OC(=O)C[C@H](c2ccc(O)cc2)NC(=O)[C@@H](Cc2c(Br)[nH]c3ccccc23)N(C)C(=O)[C@H](C)NC(=O)[C@@H](C)C1` [Jas, Jasplankinolide], the PLT release result (5 μM Jas) is “inhibited”. Moreover, under “MKs incubated with 5 μM Jas prior to infusion in microfluidic device”, the “shear-induced proPLT production” value is “inhibit”.
